According to ChEMBL document CHEMBL1944624, “Synthesis and antimalarial and antituberculosis activities of a series of natural and unnatural 4-methoxy-6-styryl-pyran-2-ones, dihydro analogues and photo-dimers” (Bioorg Med Chem, 2012):
Values after ≈ are worked out from the molar mass of the structure shown.

What was measured:
[1] = test system: Trypanosoma brucei rhodesiense; assay: Antiprotozoal activity against Trypanosoma brucei rhodesiense STIB900 trypomastigotes after 72 hrs by alamar blue assay; format: functional, organism-based; settings: STIB900, 72 h
[2] = test system: Plasmodium falciparum; assay: microbe, parasite or virus in culture; format: functional, organism-based; settings: K1
Description: Antiprotozoal activity against erythrocytic stages chloroquine- and pyrimethamine-resistant Plasmodium falciparum K1 assessed as inhibition of [3H]hypoxanthine incorporation pre-incubated for 48 hrs prior [3H]hypoxanthine addition measured after 24 hrs by liquid scintillation counting

[3] = test system: L6; assay: Cytotoxicity against rat L6 myoblasts after 72 hrs by alamar blue assay; format: cell-based; settings: L6, 72 h
[4] = test system: Leishmania donovani; assay: Antiprotozoal activity against Leishmania donovani MHOM/ET/67/L82 axenic amastigotes after 72 hrs by alamar blue assay; format: functional, organism-based; settings: MHOM/ET/67/L82, 72 h
[5] = test system: Trypanosoma cruzi; assay: Antiprotozoal activity against Trypanosoma cruzi Tulahuen C2C4 amastigotes infected in rat L6 myoblasts after 96 hrs by CPRG/Nonidet-based spectrophotometry; format: functional, organism-based; settings: Tulahuen C2C4, L6, 96 h
[6] = Selectivity index, ratio of IC50 for erythrocytic stages chloroquine and pyrimethamine-resistant Plasmodium falciparum K1 to IC50 for rat L6 myoblasts; set-up: reference not given here
[7] = test system: Plasmodium falciparum; assay: Antiprotozoal activity against Plasmodium falciparum; format: functional, organism-based
[8] = test system: Mycobacterium tuberculosis; assay: Antituberculosis activity against Mycobacterium tuberculosis; format: functional
[9] = test system: Trypanosoma brucei rhodesiense; assay: Antiprotozoal activity against Trypanosoma brucei rhodesiense; format: functional, organism-based
[10] = test system: Plasmodium falciparum; assay: Antiprotozoal activity against chloroquine resistant Plasmodium falciparum K1; format: functional, organism-based
[11] = test system: Leishmania donovani; assay: Antiprotozoal activity against Leishmania donovani; format: functional, organism-based

SMILES | IC50 [1] [µM] | IC50 [2] [µM] | IC50 [3] [µM] | IC50 [4] [µM] | IC50 [5] [µM] | Ratio IC50 [6] | IC50 [7] [µM] | MIC [8] [µM] | IC50 [9] [µM] | IC50 [10] [µM] | IC50 [11] [µM]
COc1cc(CCc2ccc3c(c2)OCO3)oc(=O)c1 | > 330 | > 18 | 150 | > 330 | > 330 | – | – | – | – | – | –
COc1cc(/C=C/c2ccc(OC)c(OC)c2)oc(=O)c1 | 31 | 3 | 160 | 270 | 170 | 54 | – | – | – | – | –
COc1cc(/C=C/c2cccc([N+](=O)[O-])c2)oc(=O)c1 | 290 | 12 | 180 | 270 | > 330 | 15 | – | – | – | – | –
COc1cc(/C=C/c2ccc([N+](=O)[O-])cc2)oc(=O)c1 | 38 | 6 | 190 | 49 | 240 | 32 | – | – | – | – | –
COc1cc(/C=C/c2ccc(C(C)(C)C)cc2)oc(=O)c1 | 44 | 5.3 | 24 | 20 | 26 | 4 | – | – | – | – | –
COc1cc(/C=C/c2ccc3c(c2)OCO3)oc(=O)c1 | 47 | 5.6 | 16 | 230 | 180 | 3 | – | – | – | – | –
COc1cc(/C=C/c2cccc(Oc3ccccc3)c2)oc(=O)c1 | 8.8 | 4.9 | 13 | 30 | 43 | 3 | – | – | – | – | –
COc1cc(/C=C/c2cccc(Oc3ccc(C(C)(C)C)cc3)c2)oc(=O)c1 | 34 | 6.3 | 64 | 25 | 40 | 10 | – | – | – | – | –
COc1cc(/C=C/C=C/c2ccccc2)oc(=O)c1 | 150 | 6.7 | 190 | 220 | > 350 | 29 | – | – | – | – | –
COc1cc(/C=C/C=C/c2ccc(N(C)C)cc2)oc(=O)c1 | 290 | 7.2 | 26 | > 300 | > 300 | 4 | – | – | – | – | –
COc1cc(/C=C/c2ccco2)oc(=O)c1 | 76 | 17 | 140 | 240 | > 410 | 8 | – | – | – | – | –
COc1cc(/C=C/c2cccc3ccccc23)oc(=O)c1 | 18 | 4.6 | 110 | 47 | 34 | 24 | – | – | – | – | –
COc1cc(/C=C/c2ccc3ccccc3c2)oc(=O)c1 | 2.7 | 1.3 | 28 | > 320 | > 320 | 22 | – | – | – | – | –
COc1cc(/C=C/c2ccc(/C=C/c3cc(OC)cc(=O)o3)cc2)oc(=O)c1 | 119 | 8.6 | > 240 | > 240 | > 240 | >28 | – | – | – | – | –
COc1cc(CCc2ccc(C(C)(C)C)cc2)oc(=O)c1 | 78 | 11 | 95 | 24 | 55 | 9 | – | – | – | – | –
COc1cc(CCc2ccc(OC)c(OC)c2)oc(=O)c1 | 200 | > 17 | > 310 | 270 | > 310 | – | – | – | – | – | –
COc1cc(CCc2cccc(Oc3ccc(C(C)(C)C)cc3)c2)oc(=O)c1 | 65 | 7.2 | 50 | 15 | 36 | 7 | – | – | – | – | –

SMILES | IC50 [1] [µM] | IC50 [2] [µM] | IC50 [3] [µM] | IC50 [4] [µM] | IC50 [5] [µM] | Ratio IC50 [6] | IC50 [7] [µM] | MIC [8] [µM] | IC50 [9] [µM] | IC50 [10] [µM] | IC50 [11] [µM]
COc1cc(CCc2cccc3ccccc23)oc(=O)c1 | 85 | > 18 | 110 | 55 | 76 | – | – | – | – | – | –
COc1cc(CCc2ccc3ccccc3c2)oc(=O)c1 | 72 | 16 | 91 | 42 | 65 | 6 | – | – | – | – | –
COc1cc(CCc2ccc(CCc3cc(OC)cc(=O)o3)cc2)oc(=O)c1 | 200 | 3.6 | 50 | > 240 | > 240 | 14 | – | – | – | – | –
COc1cc(=O)oc([C@H]2[C@H](c3ccc(OC)c(OC)c3)[C@H](c3cc(OC)cc(=O)o3)[C@H]2c2ccc(OC)c(OC)c2)c1 | 6.2 | 3.1 | 22 | 75 | 38 | 7 | – | – | – | – | –
COc1cc(=O)oc([C@H]2[C@H](c3ccc4ccccc4c3)[C@H](c3cc(OC)cc(=O)o3)[C@H]2c2ccc3ccccc3c2)c1 | 4.9 | 2.3 | 95 | 10 | 90 | 42 | – | – | – | – | –
COc1cc([C@@H]2[C@@H](c3ccccc3)[C@@H](c3ccccc3)[C@@H]2c2cc(OC)cc(=O)o2)oc(=O)c1 | 15 | 3.8 | 51 | 17 | 32 | 13 | – | – | – | – | –
CCCCCCc1c(OC)cc(CCCCC)oc1=O | – | – | – | – | – | – | 11 | 45 (≈ 12.6 µg/mL) | 14 | – | –
COC1=CC(=O)O[C@]2(/C=C/c3ccc(C(C)(C)C)cc3)[C@H]1[C@H](c1ccc(C(C)(C)C)cc1)[C@H]2c1cc(OC)cc(=O)o1 (racemic) | 21 | 1.7 | 130 | 4.5 | 71 | 76 | – | – | – | – | –
COC1=CC(=O)O[C@]2(/C=C/c3cccc(Oc4ccc(C(C)(C)C)cc4)c3)[C@H]1[C@H](c1cccc(Oc3ccc(C(C)(C)C)cc3)c1)[C@H]2c1cc(OC)cc(=O)o1 (racemic) | > 120 | 4.4 | > 120 | 66 | > 120 | >27 | – | – | – | – | –
COC1=CC(=O)O[C@]2(/C=C/c3ccccc3)[C@H]1[C@H](c1ccccc1)[C@H]2c1cc(OC)cc(=O)o1 (relative stereo) | 13 | 7.1 | > 200 | 27 | 28 | >28 | – | – | – | – | –
COC1=CC(=O)O[C@]2(/C=C/c3ccc(OC)c(OC)c3)[C@H]1[C@H](c1ccc(OC)c(OC)c1)[C@H]2c1cc(OC)cc(=O)o1 (relative stereo) | 61 | 1.5 | 120 | 79 | 130 | 80 | – | – | – | – | –
O=C(Cn1ccnc1[N+](=O)[O-])NCc1ccccc1 [BENZNIDAZOLE] | – | – | – | – | 1.4 | – | – | – | – | – | –
COc1cc(/C=C/c2ccccc2)oc(=O)c1 [DESMETHOXYYANGONIN] | 120 | 13 | 160 | 190 | 64 | 12 | – | – | – | – | –
COc1cc(CCc2ccccc2)oc(=O)c1 [DIHYDRO-5,6-DEHYDROKAWAIN] | – | > 22 | 290 | 190 | 240 | – | – | – | – | – | –
CCCCCCCCCCCCCCCCOP(=O)([O-])OCC[N+](C)(C)C [MILTEFOSINE] | – | – | – | 0.5 | – | – | – | – | – | – | –
COc1cc([C@@H]2c3cc4c(cc3[C@H](O)[C@H]3COC(=O)[C@H]23)OCO4)cc(OC)c1OC [PODOFILOX] | – | – | 0.01 | – | – | – | – | – | – | – | –
CCCCCCCC1CC(O)=C(CCCCCC)C(=O)O1 (centres undefined) [PSEUDOPYRONINE B] | – | – | – | – | – | – | – | 2.7 (≈ 0.8 µg/mL) | 42 | 48 | 4.8
